# ChEMBL document CHEMBL3244065, “Neuroleptics related to butaclamol. An investigation of the effects of chlorine substituents on the aromatic rings” (J Med Chem, 1978)
# Tests used:
# Rattus norvegicus [1] = experiment: Neuroleptic activity in ip dosed Sprague-Dawley rat assessed as inhibition of amphetamine-induced stereotyped behaviour administered 15 mins after d-amphetamine challenge; assay type: functional; details: 0.25 h, read-out: MED
# Rattus norvegicus [2] = experiment: Neuroleptic activity in ip dosed Sprague-Dawley rat assessed as conditioned active avoidance failure after 30 mins; assay type: functional; details: 0.5 h
# Rattus norvegicus [3] = experiment: Neuroleptic activity in ip dosed Sprague-Dawley rat assessed as dose required to decrease the continuous (Sidman) lever-pressing response to <50%; assay type: functional
# Rattus norvegicus [4] = experiment: Neuroleptic activity in ip dosed Sprague-Dawley rat assessed as protection against epinephrine-induced mortality administered 1 hr prior to epinephrine injection; assay type: functional
# Rattus norvegicus [5] = experiment: Toxicity in ip dosed Sprague-Dawley rat assessed as induction of maximum catalepsy; assay type: organism-based; details: in vivo
structure (smiles),measurement,setting,value
CC(C)[C@@]1(O)CCN2C[C@@H]3c4ccccc4CCc4c(Cl)ccc(c43)[C@H]2C1.Cl,minimal effective dose,Rattus norvegicus [1],10 mg/kg
same,ED50,Rattus norvegicus [2],9 mg/kg
same,Activity,Rattus norvegicus [3],2.5 mg/kg
same,ED50,Rattus norvegicus [4],50 mg/kg
same,MED,Rattus norvegicus [5],50 mg/kg
CC(C)[C@@]1(O)CCN2C[C@@H]3c4cccc(Cl)c4CCc4cccc(c43)[C@H]2C1.Cl,minimal effective dose,Rattus norvegicus [1],20 mg/kg
same,ED50,Rattus norvegicus [2],> 20 mg/kg
same,Activity,Rattus norvegicus [3],20 mg/kg
same,ED50,Rattus norvegicus [4],100 mg/kg
same,MED,Rattus norvegicus [5],100 mg/kg
CC(C)[C@@]1(O)CCN2C[C@@H]3c4ccc(Cl)cc4CCc4cccc(c43)[C@H]2C1.Cl,minimal effective dose,Rattus norvegicus [1],1.25 mg/kg
same,ED50,Rattus norvegicus [2],1.1 mg/kg
same,Activity,Rattus norvegicus [3],0.62 mg/kg
same,ED50,Rattus norvegicus [4],13.9 mg/kg
same,MED,Rattus norvegicus [5],12.5 mg/kg
CC(C)[C@@]1(O)CCN2C[C@@H]3c4cc(Cl)ccc4CCc4c(Cl)ccc(c43)[C@H]2C1.Cl,minimal effective dose,Rattus norvegicus [1],> 20 mg/kg
same,Activity,Rattus norvegicus [3],>5 mg/kg
same,ED50,Rattus norvegicus [4],> 60 mg/kg
OCCN1CCN(C2Cc3cc(Cl)ccc3Sc3ccccc32)CC1 (stereo not drawn),minimal effective dose,Rattus norvegicus [1],20 mg/kg
same,ED50,Rattus norvegicus [2],4.5 mg/kg
same,Activity,Rattus norvegicus [3],2.5 mg/kg
same,ED50,Rattus norvegicus [4],0.88 mg/kg
same,MED,Rattus norvegicus [5],> 50 mg/kg
CN1CCN(C2=Nc3cc(Cl)ccc3Nc3ccccc32)CC1 [CLOZAPINE],minimal effective dose,Rattus norvegicus [1],50 mg/kg
same,ED50,Rattus norvegicus [2],6.8 mg/kg
same,Activity,Rattus norvegicus [3],7.5 mg/kg
same,ED50,Rattus norvegicus [4],2.4 mg/kg
same,MED,Rattus norvegicus [5],> 100 mg/kg
CC(C)[C@@]1(O)CCN2C[C@@H]3c4ccccc4CCc4cccc(c43)[C@H]2C1 [DEXCLAMOL],minimal effective dose,Rattus norvegicus [1],1.25 mg/kg
same,ED50,Rattus norvegicus [2],0.64 mg/kg
same,Activity,Rattus norvegicus [3],0.5 mg/kg
same,ED50,Rattus norvegicus [4],15 mg/kg
same,MED,Rattus norvegicus [5],12.5 mg/kg
